Key:
Ang (1–7) = experiment: serum Ang (1–7) by ELISA in SHRs after 14-day oral administration; type: in vivo, rat; details: oral 14 days
From the text: (§1) All three MDAs (BAC, BMC, and BHC) were purchased from Nature-Standard Co., Ltd. (Shanghai, China) and their purities were all over 98%. The anti-hypertensive effects of MDAs were studied in both acute and chronic experiments. The 16-week-old SHRs were used in animal experiments, and each group had six rats. In the acute experiment, drug administration was via i.v. injection. For i.v. injection, the animals were randomly assigned into four groups: vehicle (0.1% DMSO–0.9% salt solution, n = 6), low-dose group (0.6 mg kg^−1 body weight, n = 6), medium-dose group (2 mg kg^−1 body weight, n = 6), and high-dose group (6 mg kg^−1 body weight, n = 6). The drug was administered using a venous catheter. […] Blood pressure was recorded in real time.
(§2) Blood samples were collected from the left femoral artery of rats at the end point, followed by centrifugation at 1,000 × g for 15 min at 4°C. […] The concentrations of circulating ACE, ACE2, Ang I, Ang II, Ang (1–7), TNF-α, and IL-6 in serum were measured using the ELISA kits [ACE, cat#xy-R2401c, X-Y Biotechnology, Shanghai, China; ACE2, cat#xy-ACE2-Ra, X-Y Biotechnology; Ang I, cat#xy-E12541, X-Y Biotechnology; Ang II, cat#xy-R1430c, X-Y Biotechnology; Ang (1–7), cat#xy-Ang1-7-Ra, X-Y Biotechnology; TNF-α, cat#GM1149, Servicebio, Shanghai, China; IL-6, cat#GM1154, Servicebio] according to the manufacturer’s instructions. […]

ACE [1] = experiment: ACE expression in aorta of SHRs (Western blot, tissue immunofluorescence); type: in vivo, rat; details: oral 14 days
From the text: as §1, with “catheter. In chronic experiments, the animals were randomly assigned into five groups: vehicle (5% Tween 80–0.9% salt solution, n = 6), captopril group (5 mg kg^−1 body weight, n = 6), low-dose group (3 mg kg^−1 body weight, n = 6), medium-dose group (10 mg kg^−1 body weight, n = 6), and high-dose group (30 mg kg^−1 body weight, n = 6). Oral administration with drug or 5% Tween 80–0.9% salt solution was carried out once a day, and continued for 14 days.” for “catheter.”, “time. […]” for “time.”
(§3) The cell samples and tissue sample were collected and placed in ice rapidly. […] Protein concentration in cell lysates was measured using a Bio-Rad DC Protein Assay Kit […]. […]

p-IKB-α = experiment: phosphorylation of IKB-α in aorta of SHRs (Western blot); type: in vivo, rat; details: oral 14 days
From the text: as §1, with “catheter. In chronic experiments, the animals were randomly assigned into five groups: vehicle (5% Tween 80–0.9% salt solution, n = 6), captopril group (5 mg kg^−1 body weight, n = 6), low-dose group (3 mg kg^−1 body weight, n = 6), medium-dose group (10 mg kg^−1 body weight, n = 6), and high-dose group (30 mg kg^−1 body weight, n = 6). Oral administration with drug or 5% Tween 80–0.9% salt solution was carried out once a day, and continued for 14 days.” for “catheter.”
as §3

[2] = molecular target: T1, recombinant human ACE (rhACE) (Homo sapiens, UniProt P12821); experiment: SPR assay with rhACE; type: binding; details: rhACE on chip, 5% DMSO–1.05× PBS
T1 construct: purchased Proteintech
T1 sequence (P12821 30-1306): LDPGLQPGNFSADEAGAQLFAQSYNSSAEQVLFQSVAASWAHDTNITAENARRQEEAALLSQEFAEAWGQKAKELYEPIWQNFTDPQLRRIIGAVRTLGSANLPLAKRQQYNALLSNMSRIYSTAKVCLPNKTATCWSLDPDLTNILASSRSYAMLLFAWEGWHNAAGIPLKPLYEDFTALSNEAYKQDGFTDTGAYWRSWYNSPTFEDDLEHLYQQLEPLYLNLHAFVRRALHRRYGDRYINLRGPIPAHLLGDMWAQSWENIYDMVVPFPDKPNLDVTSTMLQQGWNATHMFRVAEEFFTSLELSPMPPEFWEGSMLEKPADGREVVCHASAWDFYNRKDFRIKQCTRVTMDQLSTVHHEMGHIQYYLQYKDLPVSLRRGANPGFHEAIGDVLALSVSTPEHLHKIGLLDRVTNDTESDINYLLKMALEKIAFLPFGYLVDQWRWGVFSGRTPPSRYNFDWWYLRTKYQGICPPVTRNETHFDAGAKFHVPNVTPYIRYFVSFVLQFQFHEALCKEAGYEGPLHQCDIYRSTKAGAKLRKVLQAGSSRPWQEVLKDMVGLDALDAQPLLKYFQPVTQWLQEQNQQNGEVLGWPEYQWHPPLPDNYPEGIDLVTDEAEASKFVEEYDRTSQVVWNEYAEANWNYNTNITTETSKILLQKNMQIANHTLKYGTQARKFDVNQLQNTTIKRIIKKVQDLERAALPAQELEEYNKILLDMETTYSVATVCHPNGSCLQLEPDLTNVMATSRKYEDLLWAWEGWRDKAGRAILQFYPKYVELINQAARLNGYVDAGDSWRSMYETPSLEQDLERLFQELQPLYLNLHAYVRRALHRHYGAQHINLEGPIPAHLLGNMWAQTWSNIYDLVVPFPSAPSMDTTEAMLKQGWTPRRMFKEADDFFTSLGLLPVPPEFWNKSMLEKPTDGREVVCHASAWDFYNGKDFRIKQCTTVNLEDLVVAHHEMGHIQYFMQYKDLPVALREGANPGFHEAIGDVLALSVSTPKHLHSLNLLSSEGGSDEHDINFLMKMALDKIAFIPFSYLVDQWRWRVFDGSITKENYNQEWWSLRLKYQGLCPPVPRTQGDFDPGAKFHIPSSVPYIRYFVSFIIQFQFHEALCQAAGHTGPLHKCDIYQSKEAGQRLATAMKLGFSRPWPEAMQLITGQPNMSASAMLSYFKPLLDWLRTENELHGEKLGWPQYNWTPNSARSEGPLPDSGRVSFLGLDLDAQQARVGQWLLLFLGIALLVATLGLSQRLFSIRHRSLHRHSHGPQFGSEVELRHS
Procedure: To screen the potential targets of the MDAs in hypertension, a CVDPlatform (www.cbligand.org/CVD) was used as previously reported ([Zhang et al., 2016a]). The results of database screening were verified by virtual docking with Discovery Studio 3.5 (BIOVIA, San Diego, CA, United States) and then validated in the SPR assay. In the SPR assay, a solution of protein standards was prepared, and the concentration of recombinant human ACE (rhACE) protein and rhACE2 (Proteintech, Rosemont, IL, United States) solution was set to 500 μg ml^−1. […] Finally, the level of binding between the proteins and each molecule was determined based on the K d value.

ACE [3] = experiment: serum ACE by ELISA in SHRs after 14-day oral administration; type: in vivo, rat; details: oral 14 days
From the text: as §1, §2

Ang II = experiment: serum Ang II by ELISA in SHRs after 14-day oral administration; type: in vivo, rat; details: oral 14 days
From the text: as §1, §2

total NO = total NO in serum of SHRs; type: in vivo, rat; details: oral 14 days, dose-dependent
From the text: as §1
Total NO levels in serum obtained from SHRs treated with vehicle, BAC, or captopril for 14 days were quantified by using total nitric oxide assay kit (Beyotime, Shanghai, China) as described previously. The absorbance was measured using a microplate reader (Thermo Fisher Scientific) at 540 nm and calculated according to the standard curve. […]

TNF-α = experiment: serum TNF-α by ELISA in SHRs; type: in vivo, rat; details: oral 14 days
From the text: as §1, §2

In the case of CCN1CC2(COC)C(O)CC(OC)C34C5CC6(O)C(OC)C(O)C(O)(C5C6OC(=O)c5ccccc5)C(C(OC)C23)C14 (centres unmarked) [BAC, Benzoylaconitine], the “level of Ang (1–7) in blood” value (Ang (1–7)) is reported as “significantly increased”, the “ACE expression in the aorta” value (ACE [1]) is reported as “significantly downregulated” and the “phosphorylation of IKB-α” value (p-IKB-α) is reported as “downregulated”. The Kd [2] was 11 µM, the “level of ACE in blood” value (ACE [3]) was “decreased” and the “level of Ang II in blood” value (Ang II) was “decreased”. The “total NO level in serum” value (total NO) was “increase NO level” and the “level of TNF-α in serum” value (TNF-α) was “reduced”.

From publication PMC8963105, “A Novel Modulator of the Renin–Angiotensin System, Benzoylaconitine, Attenuates Hypertension by Targeting ACE/ACE2 in Enhancing Vasodilation and Alleviating Vascular Inflammation” (Frontiers in Pharmacology, 2022)
